Experimental data: article PMC5988656, “Phase I studies of AZD1208, a proviral integration Moloney virus kinase inhibitor in solid and haematological cancers” (British Journal of Cancer, 2018)

Tested on: relapsed/refractory AML
Assay: AML study: antileukaemic activity (IWG response criteria)
Assay type: in vivo, human
Excerpt: The antileukaemic activity in AML was according to the International Working Group (IWG) response criteria for AML.[17] Response criteria were modified such that an M-1 marrow was defined as 1% to ≤5% and a partial response as >5% to 25%.[18]

[1] = Investigator assessed, 120 mg, n=4
[2] = Investigator assessed, 240 mg, n=6
[3] = Investigator assessed, 480 mg, n=6
[4] = Investigator assessed, 700 mg, n=7
[5] = Investigator assessed, 900 mg, n=9
[6] = Modified Cheson criteria, 120 mg, n=4
[7] = Modified Cheson criteria, 240 mg, n=6
[8] = Modified Cheson criteria, 480 mg, n=6
[9] = Modified Cheson criteria, 700 mg, n=7
[10] = Modified Cheson criteria, 900 mg, n=9

N[C@@H]1CCCN(c2c(/C=C3\SC(=O)NC3=O)cccc2-c2ccccc2)C1 [AZD1208]
Discontinued study treatment due to a lack of therapeutic response, patients (32 eligible patients): 59.4%
Best response: CR [1]: 0 n (%)
Best response: CRi [1]: 0 n (%)
Best response: Morphologic leukaemia free [1]: 0 n (%)
Best response: Non-response [1]: 3 (75.0) n (%)
Best response: Partial remission [1]: 0 n (%)
Best response: CR [2]: 0 n (%)
Best response: CRi [2]: 0 n (%)
Best response: Morphologic leukaemia free [2]: 0 n (%)
Best response: Non-response [2]: 3 (50.0) n (%)
Best response: Partial remission [2]: 0 n (%)
Best response: CR [3]: 0 n (%)
Best response: CRi [3]: 0 n (%)
Best response: Morphologic leukaemia free [3]: 0 n (%)
Best response: Non-response [3]: 3 (50.0) n (%)
Best response: Partial remission [3]: 0 n (%)
Best response: CR [4]: 0 n (%)
Best response: CRi [4]: 0 n (%)
Best response: Morphologic leukaemia free [4]: 0 n (%)
Best response: Non-response [4]: 1 (14.3) n (%)
Best response: Partial remission [4]: 0 n (%)
Best response: CR [5]: 0 n (%)
Best response: CRi [5]: 0 n (%)
Best response: Morphologic leukaemia free [5]: 0 n (%)
Best response: Non-response [5]: 2 (22.2) n (%)
Best response: Partial remission [5]: 0 n (%)
Best response: CR [6]: 0 n (%)
Best response: CRi [6]: 0 n (%)
Best response: Morphologic leukaemia free [6]: 0 n (%)
Best response: Non-response [6]: 4 (100) n (%)
Best response: Partial remission [6]: 0 n (%)
Best response: CR [7]: 0 n (%)
Best response: CRi [7]: 0 n (%)
Best response: Morphologic leukaemia free [7]: 0 n (%)
Best response: Non-response [7]: 6 (100) n (%)
Best response: Partial remission [7]: 0 n (%)
Best response: CR [8]: 0 n (%)
Best response: CRi [8]: 0 n (%)
Best response: Morphologic leukaemia free [8]: 0 n (%)
Best response: Non-response [8]: 6 (100) n (%)
Best response: Partial remission [8]: 0 n (%)
Best response: CR [9]: 0 n (%)
Best response: CRi [9]: 0 n (%)
Best response: Morphologic leukaemia free [9]: 0 n (%)
Best response: Non-response [9]: 7 (100) n (%)
Best response: Partial remission [9]: 0 n (%)
Best response: CR [10]: 0 n (%)
Best response: CRi [10]: 0 n (%)
Best response: Morphologic leukaemia free [10]: 0 n (%)
Best response: Non-response [10]: 9 (100) n (%)
Best response: Partial remission [10]: 0 n (%)
Clinical responses according to IWG criteria (all doses): no clinical responses
